This note sets out measurements from patent publication US20090197930A1, “Eyedrops” (priority 2006, published 2009).

For this data set the following is noted: administered at high concentration.

Turning to `O=C1CN(/N=C/c2ccc(-c3ccc([N+](=O)[O-])cc3)o2)C(=O)[N-]1.[Na+]` [dantrolene, Dantrolene sodium], the miosis result was “strong miosis”, the myopic inclination result is on record as “myopic inclination is stronger” and the pupillary reaction result is recorded as “pupillary reaction becomes dull”.
